Among the data in patent publication US5098934A, “Method of relieving pain with mercaptoalkanamides” (Roussel Uclaf, priority 1983, dated 1992) are IC50 values, retold here.

The experiment deals with T1, Enkephalinase (Rattus norvegicus, UniProt P07861).
T1 construct: from tissue; host or cells: rat striatum, membrane (particulate) fraction
T1 sequence (P07861 1-750): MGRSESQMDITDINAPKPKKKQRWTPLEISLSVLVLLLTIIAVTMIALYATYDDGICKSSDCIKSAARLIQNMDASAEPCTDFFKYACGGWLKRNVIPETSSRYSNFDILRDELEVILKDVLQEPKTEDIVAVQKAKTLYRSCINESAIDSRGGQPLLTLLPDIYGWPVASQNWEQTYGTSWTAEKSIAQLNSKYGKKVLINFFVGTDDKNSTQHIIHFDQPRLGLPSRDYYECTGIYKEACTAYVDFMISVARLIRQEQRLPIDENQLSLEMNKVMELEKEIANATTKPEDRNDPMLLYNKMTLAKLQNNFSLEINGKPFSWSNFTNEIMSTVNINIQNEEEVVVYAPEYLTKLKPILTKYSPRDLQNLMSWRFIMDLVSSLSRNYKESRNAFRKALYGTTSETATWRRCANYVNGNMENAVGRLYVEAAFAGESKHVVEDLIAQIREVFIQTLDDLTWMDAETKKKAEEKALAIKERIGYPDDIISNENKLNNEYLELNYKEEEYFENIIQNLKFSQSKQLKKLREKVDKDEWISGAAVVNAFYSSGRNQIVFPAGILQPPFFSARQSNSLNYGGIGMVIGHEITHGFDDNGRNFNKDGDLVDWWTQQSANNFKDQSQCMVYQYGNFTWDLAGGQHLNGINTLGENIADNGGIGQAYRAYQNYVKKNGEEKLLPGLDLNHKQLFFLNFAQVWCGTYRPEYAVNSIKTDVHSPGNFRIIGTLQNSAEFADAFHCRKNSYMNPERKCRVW
In words: Inhibition of enkephalinase (rat striatum membrane fraction, tritiated leucine-enkephaline). Format: biochemical, rats. As to conditions: 20 nanomole tritiated leucine-enkephaline, 1 mM puromycin, 25° C., 15 minutes, pH 7.4, read-out: Enkaphalinase inhibition CI50 (50% inhibitory concentration). The method, then:
Enkephalinase activity was determined in a striatum membrane fraction of rats. The striatum was placed in ice and was homogenized in buffered 0.05M Tris with a pH of 7.4 (20 times the volume) and after a first centrifugation at 1000 g, the particular fraction obtained was subjected to two centrifugations for 10 minutes at 20,000 g. The culot was then suspended in buffered Tris and kept at 4° C. The amount of proteins was determined by the Comassie blue method.
After preincubation at 25° C. for 15 minutes, an aliquot of proteins was incubated at 25° C. for 15 minutes in the presence of 20 nanomole of tritiated leucine-enkephaline (against the first amino acid) previously purified, of 1 mM of puromycin and the test product in buffered Tris. The hydrolysis reaction was stopped by addition of 0.2N hydrochloric acid and the incubate was subjected to a deproteinization by heating at 95° C. for 15 minutes. Under these conditions, the kinetic reaction was linear. The tritiated metabolites obtained by hydrolysis were separated from enkephaline by chromatography over a column of porapak Q and elution with buffered Tris whereby enkephaline was retained in the column and was released in the following ethanolic phase. The activity of the different products was expressed in 50% inhibitory concentration called CI50 in Table II.

Take `CC(=O)SCC(Cc1ccccc1)C(=O)Nc1ccccc1` (stereo not drawn) [Example 1, Ethanethioate of S-[3-oxo-3-phenylamino-2-benzyl-propyl]]: the IC50 stood at 10000 nM.
As for `O=C(Nc1ccccc1)C(CS)Cc1ccccc1` (stereo not drawn) [Example 2, α-mercaptomethyl-N-phenyl-benzene propanamide], the figure is 1000 nM; as for `CC(=O)SCC(Cc1ccccc1)C(=O)Nc1ccc(Cl)cc1` (stereo not drawn) [Example 3, Ethanethioate of S-[3-(4-chlorophenylamino)-3-oxo-2-benzylpropyl]], 1000 nM; as for `O=C(Nc1ccc(Cl)cc1)C(CS)Cc1ccccc1` (stereo not drawn) [Example 4, N-(4-chlorophenyl)-α-mercaptomethyl-benzene-propanamide], 1000 nM.
For the compound `O=C(Nc1ccncc1)C(CS)Cc1ccccc1` (stereo not drawn) [Example 30, N-(4-pyridinyl) α-(mercaptomethyl)-benzene-propanamide], the IC50 worked out at 100 nM.
On to `COc1ccc(NC(=O)C(CS)Cc2ccccc2)cc1` (stereo not drawn) [Example 36, N-(4-methoxyphenyl) α-(mercaptomethyl)-benzene-propanamide], for which the IC50 turned out to be 50 nM.
On to `COc1cccc(NC(=O)C(CS)Cc2ccccc2)c1` (stereo not drawn) [Example 38, N-(3-methoxyphenyl) α-(mercaptomethyl)-benzene-propanamide], for which the IC50 was found to be 60 nM.
